Data on three molecules can be found in ChEMBL document CHEMBL1128467, “Novel, potent, and selective 5-HT3 receptor antagonists based on the arylpiperazine skeleton: synthesis, structure, biological activity, and comparative molecular field analysis studies” (J Med Chem, 1995).

For test [1], the target named is Sodium-dependent serotonin transporter (Rattus norvegicus, UniProt P31652).
In test [2] the test system is 5-hydroxytryptamine receptor 2C (Sus scrofa). The test is described as follows: The compound was tested for their binding affinity towards 5-hydroxytryptamine 2C receptor from pig cortex using [3H]mesulergine as radioligand; Nonactive at 10 uM.
Test [3] addresses 5-hydroxytryptamine receptor 4 (Cavia porcellus, UniProt O70528). The experiment in a line: The compound was tested for their binding affinity towards 5-hydroxytryptamine 4 receptor from guinea pig striatum using [3H]GR-113808 as radioligand.
The target in test [4] is T1, 5-hydroxytryptamine receptor 2A (Rattus norvegicus, UniProt P14842). The following applies: read-out: Ki.
The target of test [5] is T2, Serotonin 3 (5-HT3) receptor (Rattus norvegicus, UniProt P35563+Q9JJ16).
T2 sequence (P35563 whole entry): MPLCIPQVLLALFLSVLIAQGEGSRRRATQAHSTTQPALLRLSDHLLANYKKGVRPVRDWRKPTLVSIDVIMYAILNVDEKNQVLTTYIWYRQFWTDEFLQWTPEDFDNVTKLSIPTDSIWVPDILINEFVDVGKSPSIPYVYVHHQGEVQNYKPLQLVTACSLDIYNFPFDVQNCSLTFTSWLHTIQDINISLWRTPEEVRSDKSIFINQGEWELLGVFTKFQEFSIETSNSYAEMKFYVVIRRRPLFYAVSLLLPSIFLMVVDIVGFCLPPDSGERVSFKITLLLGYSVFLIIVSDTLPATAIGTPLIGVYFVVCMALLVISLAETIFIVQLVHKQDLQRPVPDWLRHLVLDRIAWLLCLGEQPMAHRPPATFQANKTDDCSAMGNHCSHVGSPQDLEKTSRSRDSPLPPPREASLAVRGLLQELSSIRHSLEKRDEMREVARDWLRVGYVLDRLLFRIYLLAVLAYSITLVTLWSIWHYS
T2 sequence (Q9JJ16 whole entry): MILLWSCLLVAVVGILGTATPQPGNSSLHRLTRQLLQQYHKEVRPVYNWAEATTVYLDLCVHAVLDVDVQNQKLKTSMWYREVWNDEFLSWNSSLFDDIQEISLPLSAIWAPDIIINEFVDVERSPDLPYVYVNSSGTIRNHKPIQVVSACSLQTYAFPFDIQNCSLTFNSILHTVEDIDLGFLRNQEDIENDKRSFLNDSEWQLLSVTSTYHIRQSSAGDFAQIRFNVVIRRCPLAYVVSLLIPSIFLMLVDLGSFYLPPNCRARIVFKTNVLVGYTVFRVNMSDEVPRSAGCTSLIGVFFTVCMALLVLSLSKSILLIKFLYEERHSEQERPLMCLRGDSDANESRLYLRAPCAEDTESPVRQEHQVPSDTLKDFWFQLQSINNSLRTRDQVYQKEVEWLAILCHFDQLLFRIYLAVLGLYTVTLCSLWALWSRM
The test is described as follows: Binding affinity for 5-hydroxytryptamine 3 receptor from rat cortex using [3H]BRL-43694 as radioligand.

In test [6] the target is T3, 5-hydroxytryptamine receptor 1A (Rattus norvegicus, UniProt P19327).
T3 sequence (P19327 whole entry): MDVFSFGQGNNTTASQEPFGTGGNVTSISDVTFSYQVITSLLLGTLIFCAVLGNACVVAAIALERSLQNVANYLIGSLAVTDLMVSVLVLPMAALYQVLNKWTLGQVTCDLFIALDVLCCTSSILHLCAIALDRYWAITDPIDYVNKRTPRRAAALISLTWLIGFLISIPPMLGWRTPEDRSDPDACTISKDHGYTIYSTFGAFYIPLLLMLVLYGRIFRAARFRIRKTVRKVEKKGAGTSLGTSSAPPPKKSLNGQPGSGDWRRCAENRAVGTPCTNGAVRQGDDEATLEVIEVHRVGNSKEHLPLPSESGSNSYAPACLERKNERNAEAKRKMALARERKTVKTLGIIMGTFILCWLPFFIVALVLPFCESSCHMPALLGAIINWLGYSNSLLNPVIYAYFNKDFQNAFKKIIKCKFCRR
Type of test: tissue-based, Hippocampus.

The target in test [7] is T4, 5-hydroxytryptamine receptor 1B (Rattus norvegicus, UniProt P28564). The test is classed as tissue-based, Striatum.
The subject of test [8] is 5-hydroxytryptamine receptor 2C (Sus scrofa). The experiment in a line: The compound was tested for their binding affinity towards 5-hydroxytryptamine 2C receptor using [3H]mesulergine as radioligand; Nonactive at 10 uM.
Test [9] concerns the target T4, 5-hydroxytryptamine receptor 1B. The test is described as follows: The compound was tested for their binding affinity towards 5-hydroxytryptamine 1B receptor from rat striatum using [3H]5-HT as radioligand.
Test [10] shares this target. The test is described as follows: The compound was tested for their binding affinity towards 5-hydroxytryptamine 1B receptor from rat striatum using [3H]5-HT as radioligand; Nonactive at 10 uM.
In test [11] the target is T1, 5-hydroxytryptamine receptor 2A. The test is described as follows: The compound was tested for its binding affinity towards 5-hydroxytryptamine 2A receptor from rat cortex using [3H]-ketanserin as radioligand; Nonactive at 10 uM.

T1 sequence (P14842 whole entry): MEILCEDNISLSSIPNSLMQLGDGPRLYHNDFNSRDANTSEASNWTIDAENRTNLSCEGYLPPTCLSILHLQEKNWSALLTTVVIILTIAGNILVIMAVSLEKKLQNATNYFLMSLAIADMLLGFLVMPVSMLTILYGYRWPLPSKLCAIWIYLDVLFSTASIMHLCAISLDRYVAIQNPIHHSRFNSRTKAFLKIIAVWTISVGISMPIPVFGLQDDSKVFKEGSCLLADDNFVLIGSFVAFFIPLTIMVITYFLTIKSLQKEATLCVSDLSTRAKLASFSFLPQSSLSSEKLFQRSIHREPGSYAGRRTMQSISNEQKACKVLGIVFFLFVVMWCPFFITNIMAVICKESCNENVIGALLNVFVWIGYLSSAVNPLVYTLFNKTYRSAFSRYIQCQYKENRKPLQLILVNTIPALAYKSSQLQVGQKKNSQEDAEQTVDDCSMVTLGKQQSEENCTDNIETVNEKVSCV
T4 sequence (P28564 whole entry): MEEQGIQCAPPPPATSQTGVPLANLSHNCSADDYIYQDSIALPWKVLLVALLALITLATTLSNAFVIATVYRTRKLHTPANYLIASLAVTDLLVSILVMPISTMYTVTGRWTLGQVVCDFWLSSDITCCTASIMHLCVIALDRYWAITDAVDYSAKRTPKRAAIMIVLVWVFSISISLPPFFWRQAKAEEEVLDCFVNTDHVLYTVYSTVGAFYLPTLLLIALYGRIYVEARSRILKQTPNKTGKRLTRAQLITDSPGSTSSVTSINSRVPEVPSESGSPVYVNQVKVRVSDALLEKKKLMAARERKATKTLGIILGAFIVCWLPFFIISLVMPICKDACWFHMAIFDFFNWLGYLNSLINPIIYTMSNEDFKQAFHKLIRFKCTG
Sequence of Sodium-dependent serotonin transporter (P31652 whole entry): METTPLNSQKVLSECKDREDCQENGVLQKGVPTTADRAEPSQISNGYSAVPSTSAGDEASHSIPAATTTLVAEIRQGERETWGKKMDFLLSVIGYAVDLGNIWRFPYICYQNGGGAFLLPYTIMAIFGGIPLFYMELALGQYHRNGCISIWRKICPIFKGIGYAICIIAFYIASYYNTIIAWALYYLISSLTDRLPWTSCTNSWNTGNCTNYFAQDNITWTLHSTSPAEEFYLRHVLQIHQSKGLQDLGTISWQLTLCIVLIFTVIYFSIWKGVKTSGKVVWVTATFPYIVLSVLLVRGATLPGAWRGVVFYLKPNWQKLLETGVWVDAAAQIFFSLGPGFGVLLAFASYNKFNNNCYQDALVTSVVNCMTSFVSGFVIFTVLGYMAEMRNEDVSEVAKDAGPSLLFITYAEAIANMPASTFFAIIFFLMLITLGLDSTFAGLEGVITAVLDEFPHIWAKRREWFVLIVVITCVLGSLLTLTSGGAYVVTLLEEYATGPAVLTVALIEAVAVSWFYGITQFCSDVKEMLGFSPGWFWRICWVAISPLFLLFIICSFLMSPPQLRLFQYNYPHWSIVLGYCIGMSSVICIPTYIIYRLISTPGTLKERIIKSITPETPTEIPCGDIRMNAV
Sequence of 5-hydroxytryptamine receptor 4 (O70528 whole entry): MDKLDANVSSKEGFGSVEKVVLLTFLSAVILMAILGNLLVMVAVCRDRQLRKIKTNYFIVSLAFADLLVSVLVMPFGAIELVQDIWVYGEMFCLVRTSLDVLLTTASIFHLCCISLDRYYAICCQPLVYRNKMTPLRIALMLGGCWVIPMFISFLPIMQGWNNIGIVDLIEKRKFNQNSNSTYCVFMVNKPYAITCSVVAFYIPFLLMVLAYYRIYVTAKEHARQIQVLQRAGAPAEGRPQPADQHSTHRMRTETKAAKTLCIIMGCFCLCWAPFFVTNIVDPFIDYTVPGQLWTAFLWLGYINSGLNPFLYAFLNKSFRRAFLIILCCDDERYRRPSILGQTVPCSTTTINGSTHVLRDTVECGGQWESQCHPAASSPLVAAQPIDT

By Ki is commonly meant the equilibrium dissociation constant of an inhibitor or competing ligand from its target. On to `CN1CCN(c2nc3ccccc3c3c2ccc2ccccc23)CC1`, for which the Ki entry is “Not Active” in [1]; “Not Active” in test [2]; “Not Active” in [3]; 920 nM in [4]; 9.5 nM in [5]; “Not Active” in test [6]. Also, the Ki entry in test [7] was “Not Active”.
`c1ccc2c(c1)nc(N1CCNCC1)c1oc3ccccc3c12`: the Ki result is “Not Active” in [1]; 1200 nM in test [4]; 32.5 nM in test [5]; “Not Active” in [8]; “Not Active” in test [6]; 280 nM in test [9].
Regarding `CCN1CCN(c2nc3ccccc3c3c2CCOc2ccccc2-3)CC1`, the inhibition constant (Ki) entry in test [10], in test [11] and in [6] was “Not Active” throughout.
